Where a name gives a salt, the structure may show the parent alone.
What was measured:
VEGF-induced edema = assay: Miles assay, VEGF as agonist; assay type: in vivo, Sprague-Dawley rats; conditions: VEGF 200 ng/injection site, vehicle 12
Method: A rodent model of vascular edema, the Miles assay, was used to screen compounds for their ability to inhibit VEGF-induced edema. […] Sprague-Dawley rats were first injected IV with vehicle alone or test agent, followed by IV injection of Evans blue dye, followed by intradermal injections of saline and VEGF (200 ng/injection site) along both shaved flanks. […] The ability of test agent to influence vascular edema was tested as above, except that the ability to block edema was tested using either VEGF or histamine as the agonist (200 ng and 10 µg/injection site, respectively).

[1] = test system: CT-26 Colon carcinoma cells; assay: CT-26 colon carcinoma lung metastases model, net tumor burden; assay type: in vivo, Balb/C mice
Method: FIGURE 3 (omitted) illustrates the effect of compounds administered in conjunction with doxorubicin in an in vivo model of metastatic colon cancer (CT-26 adenocarcinoma). Syngeneic CT-26 Colon carcinoma cells were injected I.V. in order to establish lung metastases in Balb/C mice. Beginning 10 days after cells were injected, test agents were given I.P. every 3 days for 3 cycles. Animals were sacrificed at day 20, lungs were collected, and weighed. Net tumor burden is the weight of tumor-bearing lungs minus the average weight of normal control lungs. N=5/group, p<0.02. In the experiment compound A is 6,7-bis(4-hydroxyphenyl)-pteridin-4-ylamine sulfate salt, and compound B is 6,7-diphenyl-pteridine-2,4-diamine.
FIGURE 4 (omitted) illustrates the effects of compounds of the present invention for co-drug therapy with Taxotere as described herein. Syngeneic CT-26 Colon carcinoma cells were used in order to establish lung metastases in Balb/C mice as described above. 6,7-bis(4-hydroxyphenyl)-pteridin-4-ylamine, sulfate salt (compound A) and 6,7-diphenyl-pteridine-2,4-diamine (compound B) were used.
FIGURE 6 (omitted) illustrates the effect of compounds administered in conjunction with docetaxel in the in vivo model of metastatic colon cancer (CT-26 adenocarcinoma) described for FIGURE 4. 2,3-Bis(3,4-dihydroxyphenyl)-pyrido[2,3-b]pyrazin-6-ylamine dihydrochloride salt (compound C) from FIGURE 4 is shown in FIGURE 6 as compound C. N=5/group, p<0.02.
(§1) Syngeneic CT-26 Colon carcinoma cells were injected I. V. in order to establish lung metastases in Balb/C mice. Beginning 10 days after cells were injected, indicated test agents were given I. P. every 3 days for 3 cycles. Animals were sacrificed at day 20, lungs were collected, and weighed. Net tumor burden is the weight of tumor-bearing lungs minus the average weight of normal control lungs. N=5/group, p < 0.02.
as §1, with “FIGURE 4 (omitted) illustrates the effects of the compounds of the present invention for co- drug therapy with docetaxel (Taxoteree-in this example formulated in 12. 5% Cremaphore: 12.5% Ethanol: 75% normal saline) as described herein. Syngeneic” for “Syngeneic”, “I.V.” for “I. V.”
FIGURE 6 (omitted) illustrates the effect of compounds administered in conjunction with docetaxel (Taxoreree-in this example formulated in 12.5% Cremaphore: 12.5% Ethanol:75% normal saline) in the in vivo model of metastatic colon cancer (CT-26 adenocarcinoma) described for FIGURE 4 (omitted). […] N=5/group,p < 0.02.
Similarly, 2,3-bis (4-hydroxyphenyl)-pyrido [2,3-b] pyrazin-6-ylamine dihydrochloride salt inhibited tumor burden alone or with co-drug therapy using docetaxel (Taxotere@~in this example formulated in 12.5% Cremaphore : 12.5% Ethanol:75% normal saline) as described herein. Syngeneic CT-26 Colon carcinoma cells were injected I.V. in order to establish lung metastases in Balb/C mice. Beginning 10 days after cells were injected, indicated test agents were given I.P. every 3 days for 3 cycles. Animals were sacrificed at day 20, lungs were collected, and weighed.

[2] = Acute myocardial infarct model, 60 min LAD occlusion followed by reperfusion; assay type: in vivo, Sprague-Dawley rats; conditions: for Infarct (% AAR, mean ± SEM): 24 hr post-treatment
Method: Myocardial infarcts were created in Sprague-Dawley rats (200-300 g body weight) by a 60 min occlusion of the LAD followed by LAD reperfusion. At 90 min post-reperfusion, either vehicle alone or test agents were injected IV. At 24 hr post-treatment, the ischemic zone (area at-risk, AAR) was delineated by re-ligation of the LAD followed by IV injection of alkali blue dye, after which hearts were sectioned along the short axis and stained using triphenyltetrazolium chloride to delineate viable from infarcted myocardium. Photographic images were then analyzed using morphometric software to calculate infarct area as a percent of the at-risk area.
In one group, 3-[2,4-diamino-6-(3-hydroxyphenyl)pteridin-7-yl] phenol dihydrochloride salt was administered at both 60 and 240 min post-occlusion.

[3] = in combination with docetaxel, I.P. every 3 days for 3 cycles, day 20
[4] = stand alone agent, docetaxel co-drug studies (FIGURES 4 and 6), I.P. every 3 days for 3 cycles, day 20
[5] = 0.1 mg/kg BW IV at 90 min post-reperfusion
[6] = 0.1 mg/kg BW, versus vehicle of the same study
[7] = 1.0 mg/kg BW IV at 90 min post-reperfusion
[8] = 1.0 mg/kg BW, versus vehicle of the same study

In the case of `Oc1nc(O)c2nc(-c3ccccc3)c(-c3ccc(Oc4ccc(-c5nc6c(O)nc(O)nc6nc5-c5ccccc5)cc4)cc3)nc2n1`, the “Score (scale of 0-12)” value (VEGF-induced edema; 1.5 mg/kg IV) is reported as 3.
For `Cl.Nc1cncc2nc(-c3ccc(O)c(O)c3)c(-c3ccc(O)c(O)c3)nc12` [2,3-(3,4-Dihydroxyphenyl)-pyrido[3,4-b]pyrazin-8-ylamine], the “Score (scale of 0-12)” value (VEGF-induced edema; 0.01 mg/kg IV) was 6.
For `Cl.Cl.Nc1ccc2nc(-c3ccc(O)cc3)c(-c3ccc(O)cc3)nc2n1` [2,3-bis(4-hydroxyphenyl)-pyrido[2,3-b]pyrazin-6-ylamine dihydrochloride salt], the “reduction of tumor burden” value [1, 3] was “greater than 78%” and the “reduction of tumor burden” value [1, 4] was 63%.
For `O=C(Cc1ccc(O)c(O)c1)Nc1ccccc1-c1cc2ccccc2[nH]1` [2-(3,4-Dihydroxy-phenyl)-N-[2-(1H-indol-2-yl)-phenyl]-acetamide], the “Score (scale of 0-12)” value (VEGF-induced edema; 0.5 mg/kg IV) was 7.
In the case of `O=C(Cc1ccc(O)cc1)Nc1ccccc1-c1cc2ccccc2[nH]1` [2-(4-Hydroxy-phenyl)-N-[2-(1H-indol-2-yl)-phenyl]-acetamide], the “Score (scale of 0-12)” value (VEGF-induced edema; 1.5 mg/kg IV) is reported as 2.
In the case of `O=S(=O)(O)c1cc(Nc2ncnc3ncc(-c4ccccc4)nc23)ccc1O` [2-Hydroxy-5-(6-phenyl-pteridin-4-ylamino)-benzenesulfonic acid], the “Score (scale of 0-12)” value (VEGF-induced edema; 0.5 mg/kg IV) is reported as 6.
For `O=C1c2ccccc2C(=O)N1c1ccccc1-c1cc2ccccc2[nH]1` [2-[2-(1H-indol-2-yl)-phenyl]-isoindole-1,3-dione], the “Score (scale of 0-12)” value (VEGF-induced edema; 1.5 mg/kg IV) was 3.
For `O=C(Nc1ccccc1-c1cc2ccccc2[nH]1)c1ccc(O)c(O)c1` [3,4-Dihydroxy-N-[2-(1H-indol-2-yl)-phenyl]-benzamide], the “Score (scale of 0-12)” value (VEGF-induced edema; 0.1 mg/kg IV) was 6.
With `O=C(CCc1ccc(O)cc1)Nc1ccccc1-c1cc2ccccc2[nH]1` [3-(4-Hydroxy-phenyl)-N-[2-(1H-indol-2-yl)-phenyl]-propionamide] the “Score (scale of 0-12)” value (VEGF-induced edema; 1.5 mg/kg IV) was 2.
For `Br.Br.Nc1nc(N)c2nc(-c3cccc(O)c3)c(-c3cccc(O)c3)nc2n1` [3-[2,4-Diamino-6-(3-hydroxyphenyl)pteridin-7-yl]phenol dibromide salt], the “Infarct (% AAR, mean ± SEM)” value ([2]; 0.5 mg/kg BW IV at 90 min post-reperfusion, Study 5) was 31.6 ± 6.2 % AAR and the “% Infarct reduction” value ([2]; 0.5 mg/kg BW, versus vehicle, Study 5) was 42%.
In the case of `Cl.Cl.Nc1nc(N)c2nc(-c3cccc(O)c3)c(-c3cccc(O)c3)nc2n1` [3-[2,4-diamino-6-(3-hydroxyphenyl)pteridin-7-yl] phenol dihydrochloride salt], the “Infarct (% AAR, mean ± SEM)” value [2, 5] is reported as 37.7 ± 5.8 % AAR, the “% Infarct reduction” value [2, 6] is reported as 30% and the “Infarct (% AAR, mean ± SEM)” value [2, 7] is reported as 46.4 ± 2.6 % AAR. For the same molecule, the “% Infarct reduction” value [2, 8] was “Not significant”, the “Score (scale of 0-12)” value (VEGF-induced edema; 0.01 mg/kg IV) was 3 and the “Score (scale of 0-12)” value (VEGF-induced edema; 0.1 mg/kg IV) was 4. The “Score (scale of 0-12)” value (VEGF-induced edema; 1 mg/kg IV) was 4.
For `Nc1nc(N)c2nc(-c3ccc(O)cc3)cnc2n1` [4-(2,4-Diamno-pteridin-6-yl)-phenol (sulfate salt)], the “Score (scale of 0-12)” value (VEGF-induced edema; 5 mg/kg IV, lower score = greater anti-edema activity) was 2.
For `Cl.Nc1ncnc2nc(-c3ccc(O)c(O)c3)c(-c3ccc(O)c(O)c3)nc12` [4-[4-amino-6-(3,4-dihydroxyphenyl)pteridin-7-yl]benzene-1,2-diol chloride salt], the “Infarct (% AAR, mean ± SEM)” value [2, 5] was 37.1 ± 2.6 % AAR, the “% Infarct reduction” value [2, 6] was 40% and the “Infarct (% AAR, mean ± SEM)” value [2, 7] was 40.1 ± 2.0 % AAR. The “% Infarct reduction” value [2, 8] was 35%.
With `Cl.Oc1ccc(Nc2ncnc3ncc(-c4ccccc4)nc23)c2cccnc12` [5-(6-Phenyl-pteridin-4-ylamino)-quinolin-8-ol hydrochloride salt] the “Score (scale of 0-12)” value (VEGF-induced edema; 0.5 mg/kg IV) was 5.
For `Cl.Nc1ncnc2nc(-c3cccc(O)c3)c(-c3cccc(O)c3)nc12` [6,7-Bis(3-hydroxyphenyl)-pteridine-4-ylamine hydrochloride salt], the “Infarct (% AAR, mean ± SEM)” value [2, 5] was 39.1 ± 4.2 % AAR, the “% Infarct reduction” value [2, 6] was 37% and the “Infarct (% AAR, mean ± SEM)” value [2, 7] was 39.1 ± 7.5 % AAR. For the same molecule, the “% Infarct reduction” value [2, 8] was 37%.
In the case of `Oc1cccc(-c2nc3nc(O)nc(O)c3nc2-c2cccc(O)c2)c1` [6,7-Bis-(3-hydroxy-phenyl)-pteridine-2,4-diol], the “Score (scale of 0-12)” value (VEGF-induced edema; 1.5 mg/kg IV) is reported as 3.
For `Nc1nc(N)c2nc(-c3ccc(O)c(O)c3)c(-c3ccc(O)c(O)c3)nc2n1` [6,7-bis(3,4-dihydroxyphenyl)-pteridine-2,4,-diamine, hydrochloride salt], the “Infarct (% AAR, mean ± SEM)” value ([2]; 1.5 mg/kg BW IV at 90 min post-reperfusion) was 36.3 ±6.3 % AAR and the “% Infarct reduction” value ([2]; 1.5 mg/kg BW, versus vehicle of the same study) was 33%.
With `Nc1nc(N)c2nc(CNCc3ccc4ccccc4c3)cnc2n1` [6-{[(Naphthalen-2-ylmethyl)-amino]-methyl}-pteridine-2,4-diamine] the “Score (scale of 0-12)” value (VEGF-induced edema; 0.1 mg/kg IV) was 4.
In the case of `Nc1nc(N)c2nc(CNCc3ccccn3)cnc2n1` [6-{[(Pyridin-2-ylmethyl)-amino]-methyl}-pteridine-2,4-diamine], the “Score (scale of 0-12)” value (VEGF-induced edema; 0.1 mg/kg IV) is reported as 4.
With `O=C(Nc1ccccc1C1Cc2ccccc2N1)c1ccccc1O` (stereo not drawn) [N-[2-(2,3-Dihydro-1H-indol-2-yl)-phenyl]-2-hydroxy-benzamide] the “Score (scale of 0-12)” value (VEGF-induced edema; 0.5 mg/kg IV) was 5.
In the case of `Nc1nc(N)c2nc(-c3ccccc3)c(-c3ccccc3)nc2n1` [compound B, 6,7-diphenyl-pteridine-2,4-diamine], the “reduction of tumor burden” value ([1]; in combination with doxorubicin as printed, FIGURE 4 experiment (docetaxel study)) is reported as “greater than 70%”, the “reduction of tumor burden” value ([1]; in combination with doxorubicin, FIGURE 3 experiment, I.P. every 3 days for 3 cycles, day 20) is reported as “greater than 65%” and the “tumor burden in lungs (photo of representative lung samples)” value ([1]; plus doxorubicin, compared with vehicle (control) lungs, FIGURE 5) is reported as “dramatic reduction in tumor burden”. For the same molecule, the “reduction of tumor burden” value ([1]; stand alone agent, FIGURE 3 experiment (doxorubicin study), I.P. every 3 days for 3 cycles, day 20) was 35% and the “reduction of tumor burden” value [1, 4] was 20%.
For `Cl.Cl.Nc1ccc2nc(-c3ccc(O)c(O)c3)c(-c3ccc(O)c(O)c3)nc2n1` [compound C, 2,3-Bis(3,4-dihydroxyphenyl)-pyrido[2,3-b]pyrazin-6-ylamine dihydrochloride salt], the “reduction of tumor burden” value [1, 3] was “greater than 85%” and the “reduction of tumor burden” value [1, 4] was 65%.
